Columns and labels:
CYP3A4 = CYP3A4 (Homo sapiens, UniProt P08684); assay: IC50 vs CYP3A by inhibition of lopinavir metabolism in human liver microsomes; format: biochemical; conditions: pH 7.4, human liver microsomes, 1.5 μM lopinavir, 8 min at 37° C., test concentrations 0.098-100 nM, read-out: 3A4(LPV)
Experimental: Determination of IC50 vs CYP3A by Measurement of Inhibition of Lopinavir Metabolism
This assay was performed in a standard 96-well plate design. IC50 values were calculated from the percent inhibition observed for each test compound at 6 concentrations (for example, 0.098, 0.391, 1.56, 6.25, 25 and 100 nM). The incubation substrate mix contains 1.5 μM lopinavir, 0.01 mg/mL protein human liver microsomes (BD Gentest), 1 mM NAPDH, 3.3 mM MgCl2 and 100 mM potassium phosphate buffer (pH 7.4). The production of the sum of three hydroxylated metabolites (M2: 6-hydroxy lopinavir, M3: 4-hydroxy lopinavir, M4: 4-hydroxy lopinavir (epimer of M3), Kumar et al., 1999) was determined after incubation for 8 min at 37° C. Quantitation of the metabolite peak area ratio against an internal standard (tolbutamide) was determined by LC/MS/MS analysis following acetonitrile treatment of the incubations.
(§1) Samples were analyzed in the MRM mode with a SCIEX API-4000 mass spectrometer (Applied Biosystems, Foster City, Calif.), with a Shimadzu LC-20 AD pump (Shimadzu corporation, Kyoto, JP) and a CTC PAL autosampler (Agilent Technologies, Switzerland). A Phenomenex, Luna, 5 μm, 100 A, 2.00×30 mm HPLC column was used for the separation. The mobile phases were: (A) 0.1% formic acid in water and (B) 0.1% formic acid in acetonitrile. The binary gradient was as follows.
(§2) The peak area ratio of the analyte to the internal standard was used to quantify the metabolite. The values of peak area ratios in the presence of test compound were compared to those of maximum or minimum controls and were expressed as % inhibition by interpolating between the maximum and minimum peak area ratios. Incubations with no inhibitor were defined as the maxima and with 5 μM ketoconazole were defined as the minima
(§3) The following equation was used to calculate the % inhibition:
(§4) [1−[(X−Low control)/(High control−Low control)]]*100
(§5) For the IC50 calculation, SigmaPlot was used to plot the mean % inhibition versus the test compound concentrations and for non-linear regression analysis of the data. Depending on the range of data points defining the inhibition curve, the data may have been fit to the 4-parameter logistic equation.

CYP2D6 = target: T1, CYP2D6 (Homo sapiens, UniProt P10635); assay: Cocktail CYP assay, dextromethorphan O-demethylation; format: in vitro ADME; conditions: human liver microsomes, 5 μM dextromethorphan; test concentrations up to 10 μM
T1 construct: 0.1 mg/mL protein human liver microsomes (BD Gentest); tissue BD Gentest; host or cells: human liver microsomes
T1 sequence (P10635 whole entry): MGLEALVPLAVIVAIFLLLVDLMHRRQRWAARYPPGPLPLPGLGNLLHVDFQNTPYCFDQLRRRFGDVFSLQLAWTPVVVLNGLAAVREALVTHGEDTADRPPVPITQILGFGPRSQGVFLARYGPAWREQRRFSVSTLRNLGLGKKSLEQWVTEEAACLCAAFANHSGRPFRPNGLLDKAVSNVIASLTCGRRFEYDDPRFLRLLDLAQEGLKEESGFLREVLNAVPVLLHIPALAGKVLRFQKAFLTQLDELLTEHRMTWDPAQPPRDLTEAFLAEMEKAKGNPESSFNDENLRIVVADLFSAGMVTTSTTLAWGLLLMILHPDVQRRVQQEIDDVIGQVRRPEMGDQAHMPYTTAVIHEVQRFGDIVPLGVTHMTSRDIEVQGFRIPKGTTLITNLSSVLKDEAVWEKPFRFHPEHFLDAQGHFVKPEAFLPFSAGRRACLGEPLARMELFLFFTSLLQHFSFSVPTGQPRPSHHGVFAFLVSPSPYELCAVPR
Experimental: Determination of IC50 in a Cocktail Assay for CYPs 1A2, 2C9, 2C19, 2D6 and 3A4
This assay was performed in a standard 96-well plate design. IC50 values were calculated from the percent inhibition observed for each test compound at 6 concentrations (for example, 0.0032, 0.016, 0.08, 0.4, 2 and 10 μM). The incubation substrate mix contains 10 μM phenacetin (1A2), 5 μM diclofenac (2C9), 30 μM mephenyloin (2C19), 5 μM dextromethorphan (2D6) and 2 μM midazolam (3A4), 0.1 mg/mL protein human liver microsomes (BD Gentest), 1 mM NAPDH, 3.3 mM MgCl2 and 100 mM potassium phosphate buffer (pH 7.4). The production of the metabolite of each probe substrate was determined after incubation for 10 min at 37° C. Quantitation of the metabolite peak area ratio against an internal standard (tolbutamide) was determined by LC/MS/MS analysis following acetonitrile treatment of the incubations.
as §1, with “[…],” for “μm,”
as §2, with “maxima.” for “maxima and with 5 μM ketoconazole were defined as the minima”
as §3, §4, §5

human CYP11B1 = target: T2, human CYP11B1 (Homo sapiens, UniProt P15538); assay: IC50 vs CYP11B1 by cortisol synthesis in V79 cells; format: cell-based; conditions: V79 cells expressing human CYP11B1, 1500 nM RSS, cortisol HTRF; test concentrations 0.5-10000 nM
T2 construct: expressed in transfected cells
T2 sequence (P15538 25-503): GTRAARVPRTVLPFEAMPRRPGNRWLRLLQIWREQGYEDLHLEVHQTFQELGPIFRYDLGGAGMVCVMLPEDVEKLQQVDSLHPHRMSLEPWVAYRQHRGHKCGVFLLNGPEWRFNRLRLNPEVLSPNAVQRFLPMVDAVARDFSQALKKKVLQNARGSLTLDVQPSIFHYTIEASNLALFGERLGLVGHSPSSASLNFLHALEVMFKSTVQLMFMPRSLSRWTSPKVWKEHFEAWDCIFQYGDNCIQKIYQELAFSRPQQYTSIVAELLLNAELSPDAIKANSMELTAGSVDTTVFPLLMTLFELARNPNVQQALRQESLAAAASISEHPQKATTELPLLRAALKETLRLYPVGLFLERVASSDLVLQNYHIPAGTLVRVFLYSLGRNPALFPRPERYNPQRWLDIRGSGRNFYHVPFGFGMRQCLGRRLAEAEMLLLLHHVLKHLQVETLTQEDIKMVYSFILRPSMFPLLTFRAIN
Experimental: Determination of IC50 vs CYP11B1/CYP11B2 by Measurement of Cortisol/Aldosterone Synthesis
This assay was performed in a standard 384-well plate design using cultured V79 cells stably expressing human CYP11B1 or human CYP11B2. Test compounds at 10 concentrations (for example, 10000, 3333.3, 1111.1, 370.4, 123.5, 41.2, 13.7, 4.6, 1.5 and 0.5 nM) were added in 384-well plate after the cell-seeding procedure. The incubation substrate contains 1500 nM RSS for CYP11B1 assay/750 nM DOC for CYP11B2 assay. The
Cortisol/Aldosterone production of cell culture supernatant was determined by Cortisol/Aldosterone HTRF kit after for about 15 hours incubation at RT (protect from light). IC50 values were calculated from the percent inhibition observed for each test compound at 10 concentrations.
The assay plate was read using Envision (Perkin Elmer, Waltham, Mass.) at 665 nm and 590 nm (using Filter Barcode of 217#, 205#; Mirror Barcode of 446#).
Data are analyzed using Assay Data Analyzer. All ratio data (665 nm/590 nm) are back calculated according to the standard curve, resulting in Cortisol/Aldosterone concentrations. IC50 values are reported as the Inflection Point (IP) of a four parameter fit of the titration data.
as §3
% Activity=100×{1−(Sample_back calculated Cortisol/Aldosterone concentration−LC_back calculated Cortisol/Aldosterone concentration)/(HC_back calculated Cortisol/Aldosterone concentration−LC_back calculated Cortisol/Aldosterone concentration)}

Sequence of CYP3A4 (P08684 2-503): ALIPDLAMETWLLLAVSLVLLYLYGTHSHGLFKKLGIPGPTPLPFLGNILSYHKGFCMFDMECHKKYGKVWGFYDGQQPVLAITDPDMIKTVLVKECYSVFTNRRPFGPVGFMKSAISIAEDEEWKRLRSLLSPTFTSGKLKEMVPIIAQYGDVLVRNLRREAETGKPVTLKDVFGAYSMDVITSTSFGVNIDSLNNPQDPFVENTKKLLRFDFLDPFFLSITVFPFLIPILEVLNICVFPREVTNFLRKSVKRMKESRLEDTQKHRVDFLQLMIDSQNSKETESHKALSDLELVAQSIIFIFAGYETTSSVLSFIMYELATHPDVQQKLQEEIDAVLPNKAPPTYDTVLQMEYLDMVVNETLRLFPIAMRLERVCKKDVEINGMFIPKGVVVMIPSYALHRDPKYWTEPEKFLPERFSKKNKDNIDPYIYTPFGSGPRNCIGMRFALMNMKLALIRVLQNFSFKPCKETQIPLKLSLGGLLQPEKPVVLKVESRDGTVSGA

Compound | IC50 at 8 min (CYP3A4) [nM] | IC50 (CYP2D6) [nM] | IC50 (human CYP11B1) [nM]
C[C@H](c1ccc(F)cc1)n1cncc1CN1CCN(S(=O)(=O)c2cnc(N3CCC(S(C)(=O)=O)C3)s2)CC1 (stereo partly drawn) [Compound 8] | 1.8 | > 10000 | > 10000
C[C@H](c1ccc(F)cc1)n1cncc1CN1CCN(S(=O)(=O)c2cnc(N3CCN4C[C@H](O)C[C@H]4C3)s2)CC1 [Compound 5] | 3.8 | > 10000 | 2000
C[C@H](c1ccc(F)cc1)n1cncc1CN1CCN(S(=O)(=O)c2cnc(N3CCN4C[C@@H](CN)C[C@H]4C3)s2)CC1 [Compound 10] | < 0.98 | > 10000 | 1910
C[C@H](c1ccc(F)cc1)n1cncc1CN1CCN(S(=O)(=O)c2cnc(N3CCN4C[C@H](O)C[C@@H]4C3)s2)CC1 [Compound 6] | 1.4 | > 10000 | 1560
C[C@H](c1ccc(F)cc1)n1cncc1CN1CCN(S(=O)(=O)c2ccc(N3CCNCC3)cn2)CC1 [Compound 28] | 4.4 | 6500 | 3550

Now those with a lower IC50 (CYP2D6), led by results:

IC50 at 8 min (CYP3A4) [nM] | IC50 (CYP2D6) [nM] | IC50 (human CYP11B1) [nM] | Compound
1.7 | 3380 | > 10000 | C[C@H](c1ccc(F)cc1)n1cncc1CN1CCN(S(=O)(=O)c2cnc(NCC(F)CN)s2)CC1 (stereo partly drawn) [Compound 17]
2.7 | 2700 | > 10000 | C[C@H](c1ccc(F)cc1)n1cncc1CN1CCN(S(=O)(=O)c2cnc(N3CCC4(CC3)CNC(=O)N4)s2)CC1 [Compound 3]
1.3 | 3650 | 1160 | CC1CN2C[C@H](O)C[C@H]2CN1c1ncc(S(=O)(=O)N2CCN(Cc3cncn3[C@H](C)c3ccc(F)cc3)CC2)s1 (single isomer, unassigned) [Compound 22]

From patent US20140005103A1, “SULFONAMIDE DERIVATIVES AND METHODS OF USE THEREOF FOR IMPROVING THE PHARMACOKINETICS OF A DRUG” (Merck, Sharp & Dohme Corp., priority 2012, published 2014)
